This is an account of results in patent US20260327193A1, “INHIBITORS OF PLASMA KALLIKREIN” (Rezolute, Inc., priority 2022, published 2026).

A short description of series [1]: Caco-2 permeability assay. Type of series: in vitro ADME. The note with it: human, 10 μM test compound, pH 7.4, 37° C., 120 minutes, direction of the value not given, read-out: Caco-2 Perm. On the procedure:
Permeability Assay. A permeability study was conducted using Caco-2 cells (ECACC Cat. no. 09042001) seeded on cell inserts plate (Millicell, Cat #PSHT010R^5) at a density of 80,000 cells per well, and the cells were maintained for 18-21 days in culture medium (1×DMEM with 10% FBS, 0.1 mg/mL Penicillin/Streptomycin). The culture medium was changed every alternate day. Prior to the experiments, the integrity of the cellular monolayer was evaluated by measuring the TEER value using a volt ohm meter and STX100C96 electrode. Only monolayers with TEER values greater than 800 ohm·cm^2 in buffer after the first wash were used.
An assay buffer (HBSS with Ca+2 and Mg+2 buffered with 10 mM HEPES and 25 mM D-Glucose, pH-7.4) was used on apical side as well as on basolateral side.
An intermediate stock solution of a test compound was prepared in DMSO at a concentration of 1 mM in DMSO. This stock solution was spiked in the assay buffer to achieve a target test compound concentration of 10 μM. The organic content of final drug preparation was 1.0% v/v. The bidirectional permeability experiment was done in singlet and the sample analysis was done in duplicate.
The cultured cell monolayer was washed twice with assay buffer (0.4 mL and 0.8 mL was added to the apical and basolateral sides, respectively, of the culture plate), and then buffers from both compartments were discarded.
For the apical to basal (AP>BL) experiment, aliquots of 0.4 mL donor solution (assay buffer, pH 7.4 containing test compound) and 0.8 mL of receiver solutions (assay buffer, pH 7.4, only) were added to the apical and basolateral compartments, respectively. For the basal to apical (BL>AP) experiment, aliquots of 0.8 mL donor solution (assay buffer pH-7.4 containing test compound) and 0.4 mL of receiver solutions (assay buffer, pH-7.4) were added to the basolateral and apical compartments, respectively. The plate was then kept in an incubator at 37° C. for 120 minutes.
Control experiments with Propranolol (High Permeability), Atenolol (Low Permeability), Digoxin (High Efflux-Pgp substrate), and Digoxin+Verapamil (Pgp Inhibitor) in both directions (AP>BL and BL>AP) were performed in separate wells on the same experiment day.
After the completion of the transport experiment, the integrity of the cell monolayer was evaluated by measuring the Lucifer Yellow (LY) rejection. To do this, 400 μL of 10 μM LY was added to each well of the filter plate and incubated for 1 hour at 37° C. Subsequently, the samples were collected from the basolateral compartments, and the LY fluorescence was measured using an excitation wavelength of 485 nm and an emission wavelength of 530 nm. The percent LY rejection across the cell monolayer was calculated by measuring fluorescence in the receiver plate (basolateral compartment) compared to theoretical equilibrium standard.
The study samples (collected from apical and basolateral compartments after 120 min incubation) were analyzed by LCMS/MS, following which the Papp of the compound(s) was calculated in both apical to basal and basal to apical directions. Papp=([DBL]×VBL)/(A×t×[DAP]) where: [DBL]=final drug concentration on the basolateral side, VBL=volume of the basolateral compartment, A=surface area of the cell culture, t=total incubation time, and [DAP]=initial drug concentration on the apical side.

The target of series [2] is T1, Plasma Kallikrein (Homo sapiens, UniProt P03952). Put plainly: Plasma kallikrein activity in pooled human plasma. More on the design: Plasma Kallikrein activity was also measured in pooled human plasma; from tissue; host or cells: pooled human plasma. Type of series: biochemical. The note with it: Z-FR-AMC substrate, activated with 10% Actin FS solution, 10 minutes, read-out: Pooled Human Plasma PKal IC50. How it is done:
(§1) Plasma kallikrein protease inhibition assay. Two methods for determining the IC50 of a test compound against Plasma Kallikrein are provided.
Second, Plasma Kallikrein activity was also measured in pooled human plasma. First, a 10% Actin FS solution was prepared in assay buffer. Each test compound was dissolved in DMSO and delivered to the reaction mixture along with Z-FR-AMC substrate and pooled human plasma. The multi-well reaction plate was incubated for five minutes at room temperature. To initiate the reaction, the 10% Actin FS solution was added to each well, and kinetic measurements were taken at Ex/Em at 355/460 nm. The fluorescence signal was recorded every 30 seconds for a total of 10 minutes.

For series [3], the target named is T1, Plasma Kallikrein. Put plainly: Plasma kallikrein protease inhibition assay, purified enzyme. It is filed as biochemical. More on the design: NS0-derived Gly20-Ala638, with a C-terminal 60-His tag; 60-His (so in the source) (C); purchased R&D Systems 2497-SE; host or cells: Mouse myeloma cell line, NS0. The note with it: 10 μM Z-FR-AMC substrate, 20-minute pre-incubation, pH 8.0/8.5, room temperature, read-out: Purified PKal IC50. On the procedure: as §1
In the first method was used a reaction buffer composed of 25 mM Tris-HCl (pH 8.0), 100 mM NaCl (pH 8.5), 0.01% Brij35, and 1% DMSO (final). The enzyme used was Plasma Kallikrein (R&D Systems Cat #2497-SE; Recombinant Human Plasma Kallikrein, expressed in Mouse myeloma cell line, NS0-derived Gly20-Ala638, with a C-terminal 60-His tag. MW=70 kDa).
The enzyme was activated by dilution to 200 μg/mL in activation buffer (100 mM Tris, 10 mM CaCl2, 150 mM NaCl, pH 7.5 (TCN), and then combined with an equal volume of 20 μg/mL thermolysin to form a reaction buffer. Each test compound was then dissolved in DMSO and delivered into the reaction buffer. The reaction was initiated by delivering a substrate solution containing 10 μM Z-FR-AMC (Enzo Cat #P-139; AMC: 7-Amino-4-methylcoumarin) into the reaction well after a 20-minute pre-incubation period.
Measurement was conducted with En Vision (PE) with excitation and emission wavelengths of 355 nm and 460 nm, respectively. […]. The enzyme activities were monitored every 5 minutes as a time-course measurement of the increase in signal from fluorescently labeled peptide substrate for 120 minutes at room temperature.
Data was analyzed by taking slope*(signal/time) of the linear portion of measurements. Slope was calculated using Excel, and curve fits were performed using Prism software.

T1 sequence (P03952 391-638 limits assumed): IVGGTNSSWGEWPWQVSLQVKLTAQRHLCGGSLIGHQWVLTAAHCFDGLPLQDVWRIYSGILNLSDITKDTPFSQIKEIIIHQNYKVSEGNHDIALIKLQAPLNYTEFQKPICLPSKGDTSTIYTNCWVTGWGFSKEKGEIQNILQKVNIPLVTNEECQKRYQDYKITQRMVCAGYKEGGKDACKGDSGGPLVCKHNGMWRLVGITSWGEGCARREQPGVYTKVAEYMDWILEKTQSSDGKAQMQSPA
T1 sequence (P03952 20-390 partner limits assumed): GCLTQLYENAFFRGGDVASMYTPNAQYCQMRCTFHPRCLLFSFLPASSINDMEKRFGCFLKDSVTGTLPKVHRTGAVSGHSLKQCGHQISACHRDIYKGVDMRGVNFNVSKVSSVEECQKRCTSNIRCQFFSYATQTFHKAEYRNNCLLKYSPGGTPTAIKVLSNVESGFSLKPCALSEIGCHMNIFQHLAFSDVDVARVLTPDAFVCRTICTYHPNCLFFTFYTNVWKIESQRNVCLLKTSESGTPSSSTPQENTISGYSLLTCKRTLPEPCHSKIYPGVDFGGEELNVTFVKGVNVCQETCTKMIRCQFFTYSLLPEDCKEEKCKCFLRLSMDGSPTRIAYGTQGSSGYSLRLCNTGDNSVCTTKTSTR

Consider `CN(C)C(=O)Cc1ccc(Cn2cc(C(=O)NCc3ccc(C(=N)N)cc3)cn2)cc1` [Example 33, N-(4-carbamimidoylbenzyl)-1-(4-(2-(dimethylamino)-2-oxoethyl)benzyl)-1H-pyrazole-4-carboxamide], for which the Papp at 2 h, 10 µM in series [1] is under 2 ×10⁻⁶ cm/s. The IC50 was under 100 nM on Plasma Kallikrein [2] and under 1 nM on Plasma Kallikrein [3].

For `N#Cc1cccc(Cc2ccc(Cn3cc(C(=O)NCc4ccc(C(=N)N)cc4F)cn3)cc2)c1` [Example 50, N-(4-carbamimidoyl-2-fluorobenzyl)-1-(4-(3-cyanobenzyl)benzyl)-1H-pyrazole-4-carboxamide], the Papp at 2 h, 10 µM in series [1] was under 2 ×10⁻⁶ cm/s. For the same molecule, the IC50 on Plasma Kallikrein [2] is under 100 nM; on Plasma Kallikrein [3] it was under 1 nM.

Turning to `N#CCCc1ccc(Cn2cc(C(=O)NCc3ccc(C(=N)N)cc3)cn2)cc1` [Example 3, N-(4-carbamimidoylbenzyl)-1-(4-(2-cyanoethyl)benzyl)-1H-pyrazole-4-carboxamide], the Papp at 2 h, 10 µM in series [1] was under 2 ×10⁻⁶ cm/s. In addition, the IC50 on Plasma Kallikrein [2] was under 100 nM; on Plasma Kallikrein [3], under 1 nM.

With `N#Cc1ccn(Cc2ccc(Cn3cc(C(=O)NCc4ccc(C(=N)N)cc4)cn3)cc2)c1` [Example 26, N-(4-carbamimidoylbenzyl)-1-(4-((3-cyano-1H-pyrrol-1-yl)methyl)benzyl)-1H-pyrazole-4-carboxamide], in series [1], the Papp at 2 h, 10 µM was under 2 ×10⁻⁶ cm/s. Further, the IC50 was under 100 nM at Plasma Kallikrein [2] and under 1 nM on Plasma Kallikrein [3].

In the case of `CC(C)(C#N)c1ccc(Cn2cc(C(=O)NCc3ccc(C(=N)N)cc3)cn2)cc1` [Example 7, N-(4-carbamimidoylbenzyl)-1-(4-(2-cyanopropan-2-yl)benzyl)-1H-pyrazole-4-carboxamide], the Papp at 2 h, 10 µM in series [1] was under 2 ×10⁻⁶ cm/s. In addition, the IC50 was under 100 nM on Plasma Kallikrein [2] and under 1 nM on Plasma Kallikrein [3].

For `N#Cc1cccc(Cc2ccc(Cn3cc(C(=O)NCc4ccc(C(=N)N)cc4)cn3)cc2)c1` [Example 28, N-(4-carbamimidoylbenzyl)-1-(4-(3-cyanobenzyl)benzyl)-1H-pyrazole-4-carboxamide], the Papp at 2 h, 10 µM in series [1] is under 2 ×10⁻⁶ cm/s. The IC50 at Plasma Kallikrein [2] was under 100 nM; at Plasma Kallikrein [3], under 1 nM.

Take `CC(C)(C#N)c1ccc(Cn2cc(C(=O)NCc3ccc(C(=N)N)c(F)c3)cn2)cc1` [Example 43, N-(4-carbamimidoyl-3-fluorobenzyl)-1-(4-(2-cyanopropan-2-yl)benzyl)-1H-pyrazole-4-carboxamide]: the Papp at 2 h, 10 µM in series [1] is under 2 ×10⁻⁶ cm/s. Also, the results for the IC50 on Plasma Kallikrein [2] and on Plasma Kallikrein [3] were under 100 nM and 1 to 10 nM, respectively.

Take `CNC(=O)Cc1ccc(Cn2cc(C(=O)NCc3ccc(C(=N)N)cc3)cn2)cc1` [Example 19, N-(4-carbamimidoylbenzyl)-1-(4-(2-(methylamino)-2-oxoethyl)benzyl)-1H-pyrazole-4-carboxamide]: the Papp at 2 h, 10 µM in series [1] was under 2 ×10⁻⁶ cm/s. In addition, the IC50 at Plasma Kallikrein [2] was under 100 nM; at Plasma Kallikrein [3], under 1 nM.
